Data as given in patent publication US10053416B1, “Process for producing long chain amino acids and dibasic acids” (VITAWORKS IP, LLC, priority 2017, dated 2018).
Counter-ions that a name gives are not always drawn.

Experiments:
[1] = Solubility / phase separation observation in water and aqueous salt solutions; type: physicochemical
Protocol: If there are long chain fatty acids present in the starting material, these fatty acids are precipitated as the ammonium salt, along with the long chain amino acid. In the production of 11-aminoundecanoic acid and dodecanedioic acid from the starting material of castor oil, significant amount of stearic acid is present in the mixed amide derivatives. […] If ammonia or ammonium hydroxide is used as the basic agent to neutralize sulfuric acid, and after more basic agent is added to the mother liquor to a basic pH, alkylamine can only be recovered by extraction. Distillation of the basic solution will remove ammonia instead of alkylamine. […] No phase separation is observed between hexylamine and a solution of ammonium sulfate.

[2] = Solubility curve in 5% aqueous solution of ammonium hydroxide (FIG. 4); type: physicochemical; conditions: as a function of temperature (FIG. 4)
Description: FIG. 4. Solubility curve of 11-aminoundecanoic acid and dodecanedioic acid in 5% aqueous solution of ammonium hydroxide.
In one embodiment of the present invention, schematically illustrated in FIG. 1, the solution or suspension is further cooled to crystallize the long chain amino acid, which can be recovered by means of solid-liquid separation to provide a mother liquor containing the ammonium or alkylamine salts of long chain dibasic acid and alkanoic acid. […] The three components in the mother liquor, i.e., alkylamine, dodecanedioic acid, and alkanoic acid, can be separated according to one of the following three methods.

Solubility ([1]; in a solution of alkali salt)	Solubility ([1]; in a solution of ammonium salt, i.e., ammonium sulfate)	Solubility ([1]; in water)	Compound	Solubility [2]
insoluble	freely soluble	insoluble	CCCCCCN [hexylamine]	
			NCCCCCCCCCCC(=O)O [11-aminoundecanoic acid]	nearly insoluble
			O=C(O)CCCCCCCCCCC(=O)O [ammonium salt of dodecanedioic acid, dodecanedioic acid]	soluble and becomes more soluble as temperature increases
